Source: patent publication US20150239889A1, “PYRAZOLOPYRIMIDINE COMPOUND” (MITSUBISHI TANABE PHARMA CORPORATION, priority 2012, published 2015)

Tests used:
Hep3B cells = assay: EPO production assay (ELISA of culture supernatant); format: cell-based; settings: Homo sapiens, 3 μmol/L test compound, 48 hours, relative to control (0.1% DMSO), read-out: EPO production stimulation rate with 3 μmol/L test compound
In short: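 Hep3B cells (40000/well) switched to MEM with 0.5% FBS and treated with compound (0.1% DMSO) for 48 h at 37 °C. Supernatant EPO measured by ELISA; value is fold stimulation at 3 μmol/L compound over unstimulated control.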

human HIF-PHD2 = molecular target: T1, human HIF-PHD2 (Homo sapiens, UniProt Q9GZT9); assay: HIF-PHD inhibition assay (fluorescence polarization), human HIF-PHD2; format: biochemical; settings: 2-oxoglutaric acid 3.33 μmol/L
T1 construct: purchased CrystalGenomics Ltd
In short: (§1)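 Compounds tested for enzyme inhibition by fluorescence polarization. Subtracting the reading taken before enzyme addition from the post-addition reading gave activity in mP.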

human HIF-PHD3 = molecular target: T2, human HIF-PHD3 (Homo sapiens, UniProt Q9H6Z9); assay: HIF-PHD inhibition assay (fluorescence polarization), human HIF-PHD3; format: biochemical; settings: 2-oxoglutaric acid 166 μmol/L
T2 construct: purchased CrystalGenomics Ltd
In short: as §1

T1 sequence (Q9GZT9 2-426 limits assumed): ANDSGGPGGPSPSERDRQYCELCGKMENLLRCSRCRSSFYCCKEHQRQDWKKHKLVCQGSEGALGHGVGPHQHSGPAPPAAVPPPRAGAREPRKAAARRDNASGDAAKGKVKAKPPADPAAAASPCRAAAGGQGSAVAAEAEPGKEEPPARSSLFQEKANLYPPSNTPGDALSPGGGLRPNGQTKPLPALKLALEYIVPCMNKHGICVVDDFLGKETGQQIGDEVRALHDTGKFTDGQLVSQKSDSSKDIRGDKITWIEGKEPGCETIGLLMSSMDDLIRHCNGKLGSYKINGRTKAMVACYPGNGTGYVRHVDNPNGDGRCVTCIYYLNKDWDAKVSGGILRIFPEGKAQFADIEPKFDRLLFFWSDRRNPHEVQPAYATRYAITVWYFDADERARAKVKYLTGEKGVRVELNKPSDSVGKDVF
T2 sequence (Q9H6Z9 whole entry): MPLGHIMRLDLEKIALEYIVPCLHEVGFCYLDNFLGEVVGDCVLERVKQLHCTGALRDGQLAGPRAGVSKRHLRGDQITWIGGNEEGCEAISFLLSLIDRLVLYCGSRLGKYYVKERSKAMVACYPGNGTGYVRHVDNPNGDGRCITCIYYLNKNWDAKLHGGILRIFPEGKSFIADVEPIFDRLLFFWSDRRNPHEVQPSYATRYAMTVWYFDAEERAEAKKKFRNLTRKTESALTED

IC50 (human HIF-PHD2): 17 nM
IC50 (human HIF-PHD3): 240 nM
Compound: O=C(O)c1cnn(-c2nc(O)c3c(cnn3Cc3ccc4ccccc4c3F)n2)c1 [Example 34]
fold induction at 3 µM (Hep3B cells): 1.2
